# Measurements taken from patent US20090233881A1, “COMPOUNDS HAVING ANTI-CANCER PROPERTIES” (Vital Health Sciences Pty. Ltd, priority 2005, published 2009).
# Several values for one entry are separate records, joined by “and”; a condition that tells them apart may be missing. Equal entries are not always repeated.
# Tests used:
# [1] = system: MCF-7 breast cancer cells; experiment: MCF-7 breast cancer cell line proliferation assay (MTS); format: cell-based, human; conditions: MCF-7, 72 hours, no E, concentration 1
# [2] = system: MCF-7 breast cancer cells; experiment: as above; format: cell-based, human; conditions: for activity on MCF-7 proliferation (MTS; quantity not given): MCF-7, 72 hours, no E
# Procedure: MCF-7 breast cancer cell growth conditions: Cells were grown in 75 cm^2 plastic tissue cell flasks as monolayer in Dulbecco's Modified Eagle Medium (DMEM), supplemented with 10% FBS in a humidified atmosphere of 5% CO2 in 95% air at 37° C. Cells were sub-cultured at bi-weekly intervals by suspension with 0.06% trypsin/0.02% EDTA (pH 7.3).
# MCF-7 breast cancer cell line proliferation assays (MITS Assays): Cells were trypsinised (as performed during sub-culturing) in DMEM, supplemented with 10% FBS. Cells were re-suspended to a cell count of 10,000 cells/ml, with the use of a haemocytometer. Cells were seeded at 1,000 cells/well or by the addition of 100 μl of the cell suspension into 96-well cell culture plates. The cells were left overnight and then were synchronised (by serum starving for 24 hours), prior to the start of experiments.
# After the cells were synchronised the cells were treated with the appropriate concentrations of the treatments, prepared in 100% ethanol (2, 5, 10, 15, 20, 30 & 50 μg/ml), they were added to RPMI medium 1640 supplemented with 10% dextran-charcoal treated FCS (DCFBS). […] After 72 hours the plates are incubated with MTS reagent (as described in Example 1) for 1 hr. The plate was read in a spectrophotometer at 490 nm. There were 8 replicates for each compound tested (at the various concentrations shown below).
# Treatment abbreviations: GT=gamma-tocopherol; GTP=gamma-tocopheryl phosphate; GT2P=gamma-di-tocopheryl phosphate, GTPM=gamma-tocopheryl phosphate mixture (combination of GTP and GT2P).
# [3] = system: DU-145 prostate cancer cells; experiment: DU-145 cell growth assay (Coulter cell counting); format: cell-based; conditions: DU-145, 12 days; for Total viable cells/well: single well
# Procedure: Culture of stock cells. DU-145 prostate cancer cells were purchased from American Type Culture Collection (Manassas, Va., USA). Stock cells were grown in Dulbecco's Modified Eagle Medium (DMEM) (Gibco BRL, Grand Island N.Y.) supplemented with 5% FBS (Fetal Bovine Serum, Gibco BRL, Grand Island N.Y.) in a humidified atmosphere of 5% CO2 in air at 37° C. Cells were subcultured every 1-2 times a week.
# Cell growth assay. Cells were trypsinized from the stock plates by treatment with trypsin/versene, added to an equal volume of phenol red-free RPMI-1640 (Gibco BRL, Grand Island N.Y.) supplemented with 5% dextran-charcoal treated fetal calf serum (DCFCS). Cells were resuspended to a cell count of 0.1×10^5 cells/ml with the use of a haemocytometer and plated in monolayer in 0.5 ml aliquots into 24-well plastic culture dishes (Costar, Corning USA). After 24 hours, cells were treated with appropriate concentrations (see table) of γ-tocopheryl phosphate mixture (γ-TP) (Vital Health) and Lycopene (Sigma) or combinations of Lycopene and γ-TP diluted in phenol red-free RPMI medium 1640 supplemented with 5% DCFCS. The culture medium was changed every 3-4 days. The combination treatment contained lycopene and γ-TP in a 1:1 ratio by molecular weight/mass with lycopene varying from 5 ug/ml-40 ug/ml.
# Cell counting. The cells were washed twice with 0.9% NaCl to remove non-adherent dead cells and were then lysed in 0.5 ml 2.5 mM Hepes buffer/[…] MgCl2 plus two drops of zapoglobin II lytic reagent (Beckman Coulter, Coulter Corp USA) for 5-15 minutes. The nuclei released were suspended in isoton III (Beckman Coulter, Coulter Corp, USA) and counted on a Coulter counter with particle size set at >5 μm. All cell counts were carried out in triplicate on triplicate well contents. The results were calculated as the average ±standard error. P-values were determined using Independent samples T-Test (by standard software packages SPSS).
Structure (SMILES),activity on MCF-7 proliferation (MTS; quantity not given) [1],activity on MCF-7 proliferation (MTS; quantity not given) ([2]; concentration 2 μg/ml),activity on MCF-7 proliferation (MTS; quantity not given) ([2]; concentration 5 μg/ml),activity on MCF-7 proliferation (MTS; quantity not given) ([2]; concentration 10 μg/ml),activity on MCF-7 proliferation (MTS; quantity not given) ([2]; concentration 15 μg/ml),activity on MCF-7 proliferation (MTS; quantity not given) ([2]; concentration 20 μg/ml),activity on MCF-7 proliferation (MTS; quantity not given) ([2]; concentration 30 μg/ml),activity on MCF-7 proliferation (MTS; quantity not given) ([2]; concentration 50 μg/ml),relative potency as anti-cancer treatment ([2]; MCF-7),Average total viable cells/well ([3]; Lycopene 5 ug/ml),Total viable cells/well ([3]; Lycopene 5 ug/ml),Average total viable cells/well ([3]; Lycopene 10 ug/ml),Total viable cells/well ([3]; Lycopene 10 ug/ml),Average total viable cells/well ([3]; Lycopene 15 ug/ml),Total viable cells/well ([3]; Lycopene 15 ug/ml),Average total viable cells/well ([3]; Lycopene 20 ug/ml),Average total viable cells/well ([3]; Lycopene 25 ug/ml),Total viable cells/well ([3]; Lycopene 25 ug/ml),Average total viable cells/well ([3]; Lycopene 30 ug/ml)
"Cc1c(OP(=O)(O)Oc2cc3c(c(C)c2C)O[C@](C)(CCC[C@H](C)CCC[C@H](C)CCCC(C)C)CC3)cc2c(c1C)O[C@](C)(CCC[C@H](C)CCC[C@H](C)CCCC(C)C)CC2 [GT2P, gamma-di-tocopheryl phosphate]",7.283,4.91,31.07,39.471,53.126,64.557,98.43,126.506,–,–,–,–,–,–,–,–,–,–,–
"Cc1c(O)cc2c(c1C)O[C@](C)(CCC[C@H](C)CCC[C@H](C)CCCC(C)C)CC2 [GT, gamma-tocopherol]",−6.104,15.685,36.36,68.689,56.82,79.766,82.743,62.622,least potent with limited activity,–,–,–,–,–,–,–,–,–,–
"Cc1c(OP(=O)(O)O)cc2c(c1C)O[C@](C)(CCC[C@H](C)CCC[C@H](C)CCCC(C)C)CC2 [GTP, gamma-tocopheryl phosphate]",7.32,5.624,4.807,25.102,43.512,64.719,81.81,109.928,–,–,–,–,–,–,–,–,–,–,–
CC(C)=CCC/C(C)=C/C=C/C(C)=C/C=C/C(C)=C/C=C/C=C(C)/C=C/C=C(C)/C=C/C=C(\C)CCC=C(C)C [lycopene],–,–,–,–,–,–,–,–,–,4.367 ×10^5 cells/well,4.392 ×10^5 cells/well and 4.383 ×10^5 cells/well and 4.325 ×10^5 cells/well,3.712 ×10^5 cells/well,3.555 ×10^5 cells/well and 3.869 ×10^5 cells/well,3.716 ×10^5 cells/well,3.704 ×10^5 cells/well and 3.727 ×10^5 cells/well,0.276 ×10^5 cells/well,1.478 ×10^5 cells/well,1.759 ×10^5 cells/well and 1.196 ×10^5 cells/well,0.120 ×10^5 cells/well
